For this experiment, the system named is human prostatic adenocarcinoma cell line PC3. Nature of the experiment: Cell viability studies, PC3. The class given is cell-based. The settings on record: PC-3, PC3 cells. An excerpt:
Subsequently, the dextran nanophores therapeutic potential in vitro and in vivo was investigated. […] This drug combination was selected, because it was previously reported that inhibition of the androgen receptor pathway leads to overactivation of the PI3K cascade, while suppression of PI3K upregulates androgen-receptor-mediated signaling. […] Doxorubicin and the MEK inhibitor AZD6244 (Selumetinib®) was co-loaded into dextran nanophores, since MEK is a downstream target of EGFR.

Molecules are shown by their SMILES. pIC50: −log10 of the molar value. Read-outs that look alike come from different tables or passages of the source.

These results are taken from US20200315981A1, “COMPOSITIONS AND METHODS FOR NANOPARTICLE-BASED DRUG DELIVERY AND IMAGING” (Memorial Sloan Kettering Cancer Center, priority 2015, published 2020).

With `COc1cccc2c1C(=O)c1c(O)c3c(c(O)c1C2=O)C[C@@](O)(C(=O)CO)C[C@@H]3O[C@H]1C[C@H](N)[C@H](O)[C@H](C)O1` [doxorubicin], the pIC50 runs as follows: (FIG. 6, read-out: IC50) 5.19; (FIG. 9D, read-out: doxorubicin concentration causing 50% reduction in the viability of PC3 cells) 5.10.
